Reference: the NIST ThermoML archive (doi:10.1021/je050020m)

Test: xn = mol fraction of the nth substance listed
Conditions: Liquid, Vibrating tube method

CCCCCCCCCC [decane] + O=C=O
Conditions | mass density [kg/m3]
323.05 K, 14026 kPa, x2 = 0.0551 | 721.01
323.05 K, 15008 kPa, x2 = 0.0551 | 721.76
323.05 K, 16035 kPa, x2 = 0.0551 | 722.62
323.05 K, 17008 kPa, x2 = 0.0551 | 723.4
323.05 K, 18019 kPa, x2 = 0.0551 | 724.22
323.05 K, 18994 kPa, x2 = 0.0551 | 724.89
323.05 K, 20009 kPa, x2 = 0.0551 | 725.73
323.05 K, 21010 kPa, x2 = 0.0551 | 726.47
323.05 K, 21987 kPa, x2 = 0.0551 | 727.22
323.05 K, 23060 kPa, x2 = 0.0551 | 728.04
323.05 K, 23980 kPa, x2 = 0.0551 | 728.74
323.05 K, 25055 kPa, x2 = 0.0551 | 729.61
323.06 K, 5014 kPa, x2 = 0.2369 | 719.6
323.06 K, 6022 kPa, x2 = 0.2369 | 720.66
323.06 K, 7021 kPa, x2 = 0.2369 | 721.73
323.06 K, 7029 kPa, x2 = 0.4536 | 732.05
323.06 K, 8017 kPa, x2 = 0.4536 | 733.42
323.06 K, 8020 kPa, x2 = 0.2369 | 722.8
323.06 K, 9010 kPa, x2 = 0.2369 | 723.79
323.06 K, 9018 kPa, x2 = 0.4536 | 734.79
323.06 K, 10024 kPa, x2 = 0.4536 | 736.13
323.06 K, 10030 kPa, x2 = 0.2369 | 724.84
323.06 K, 11018 kPa, x2 = 0.2369 | 725.81
323.06 K, 11019 kPa, x2 = 0.4536 | 737.41
323.06 K, 12021 kPa, x2 = 0.2369 | 726.78
323.06 K, 12025 kPa, x2 = 0.4536 | 738.69
323.06 K, 13001 kPa, x2 = 0.2369 | 727.75
323.06 K, 13003 kPa, x2 = 0.4536 | 739.89
323.06 K, 14021 kPa, x2 = 0.2369 | 728.7
323.06 K, 14027 kPa, x2 = 0.4536 | 741.16
323.06 K, 15001 kPa, x2 = 0.4536 | 742.33
323.06 K, 15014 kPa, x2 = 0.2369 | 729.63
323.06 K, 16010 kPa, x2 = 0.2369 | 730.54
323.06 K, 16024 kPa, x2 = 0.4536 | 743.53
323.06 K, 17006 kPa, x2 = 0.2369 | 731.46
323.06 K, 17010 kPa, x2 = 0.4536 | 744.68
323.06 K, 18028 kPa, x2 = 0.2369 | 732.36
323.06 K, 18030 kPa, x2 = 0.4536 | 745.84
323.06 K, 19000 kPa, x2 = 0.4536 | 746.93
323.06 K, 19016 kPa, x2 = 0.2369 | 733.24
323.06 K, 20015 kPa, x2 = 0.2369 | 734.11
323.06 K, 20028 kPa, x2 = 0.4536 | 748.09
323.06 K, 21001 kPa, x2 = 0.4536 | 749.17
323.06 K, 21027 kPa, x2 = 0.2369 | 735
323.06 K, 22020 kPa, x2 = 0.4536 | 750.24
323.06 K, 22023 kPa, x2 = 0.2369 | 735.85
323.06 K, 23012 kPa, x2 = 0.4536 | 751.33
323.06 K, 23022 kPa, x2 = 0.2369 | 736.71
323.06 K, 24006 kPa, x2 = 0.2369 | 737.58
323.06 K, 24021 kPa, x2 = 0.4536 | 752.42
323.06 K, 25004 kPa, x2 = 0.2369 | 738.42
323.06 K, 25029 kPa, x2 = 0.4536 | 753.51
332.91 K, 12008 kPa, x2 = 0.8114 | 740.55
332.91 K, 13051 kPa, x2 = 0.8114 | 744.82
332.91 K, 14018 kPa, x2 = 0.8114 | 748.57
332.91 K, 15048 kPa, x2 = 0.8114 | 752.37
332.91 K, 15985 kPa, x2 = 0.8114 | 755.64
332.91 K, 17015 kPa, x2 = 0.8114 | 759.04
332.91 K, 18008 kPa, x2 = 0.8114 | 762.27
332.91 K, 19002 kPa, x2 = 0.8114 | 765.33
332.91 K, 20017 kPa, x2 = 0.8114 | 768.38
332.91 K, 21018 kPa, x2 = 0.8114 | 771.25
332.91 K, 22044 kPa, x2 = 0.8114 | 774.13
332.91 K, 23040 kPa, x2 = 0.8114 | 776.83
332.91 K, 24008 kPa, x2 = 0.8114 | 779.4
332.91 K, 25047 kPa, x2 = 0.8114 | 782.09
332.94 K, 1997 kPa, x2 = 0.0551 | 702.61
332.94 K, 3024 kPa, x2 = 0.0551 | 703.63
332.94 K, 4011 kPa, x2 = 0.0551 | 704.59
332.94 K, 5026 kPa, x2 = 0.2369 | 711.09
332.94 K, 5040 kPa, x2 = 0.0551 | 705.62
332.94 K, 6015 kPa, x2 = 0.2369 | 712.23
332.94 K, 6062 kPa, x2 = 0.0551 | 706.62
332.94 K, 7009 kPa, x2 = 0.0551 | 707.53
332.94 K, 7015 kPa, x2 = 0.4536 | 721.74
332.94 K, 7019 kPa, x2 = 0.2369 | 713.38
332.94 K, 7978 kPa, x2 = 0.0551 | 708.43
332.94 K, 8020 kPa, x2 = 0.2369 | 714.47
332.94 K, 8025 kPa, x2 = 0.4536 | 723.26
332.94 K, 9016 kPa, x2 = 0.4536 | 724.72
332.94 K, 9017 kPa, x2 = 0.2369 | 715.56
332.94 K, 9037 kPa, x2 = 0.0551 | 709.44
332.94 K, 9992 kPa, x2 = 0.0551 | 710.31
332.94 K, 10015 kPa, x2 = 0.2369 | 716.65
332.94 K, 10023 kPa, x2 = 0.4536 | 726.15
332.94 K, 11009 kPa, x2 = 0.2369 | 717.69
332.94 K, 11014 kPa, x2 = 0.4536 | 727.55
332.94 K, 11032 kPa, x2 = 0.0551 | 711.27
332.94 K, 12001 kPa, x2 = 0.4536 | 728.9
332.94 K, 12005 kPa, x2 = 0.9663 | 511.9
332.94 K, 12013 kPa, x2 = 0.0551 | 712.13
332.94 K, 12015 kPa, x2 = 0.2369 | 718.74
332.94 K, 12511 kPa, x2 = 0.9663 | 544.43
332.94 K, 13003 kPa, x2 = 0.9663 | 571.24
332.94 K, 13015 kPa, x2 = 0.2369 | 719.76
332.94 K, 13027 kPa, x2 = 0.0551 | 713.03
332.94 K, 13045 kPa, x2 = 0.4536 | 730.28
332.94 K, 13998 kPa, x2 = 0.4536 | 731.55
332.94 K, 14011 kPa, x2 = 0.2369 | 720.77
332.94 K, 14015 kPa, x2 = 0.9663 | 614.37
332.94 K, 14018 kPa, x2 = 0.0551 | 713.89
332.94 K, 15000 kPa, x2 = 0.4536 | 732.81
332.94 K, 15003 kPa, x2 = 0.2369 | 721.75
332.94 K, 15021 kPa, x2 = 0.0551 | 714.75
332.94 K, 15026 kPa, x2 = 0.9663 | 648.23
332.94 K, 15997 kPa, x2 = 0.0551 | 715.59
332.94 K, 16019 kPa, x2 = 0.2369 | 722.73
332.94 K, 16032 kPa, x2 = 0.4536 | 734.14
332.94 K, 16035 kPa, x2 = 0.9663 | 674.85
332.94 K, 16998 kPa, x2 = 0.0551 | 716.44
332.94 K, 17015 kPa, x2 = 0.2369 | 723.7
332.94 K, 17018 kPa, x2 = 0.4536 | 735.36
332.94 K, 17018 kPa, x2 = 0.9663 | 695.62
332.94 K, 18016 kPa, x2 = 0.9663 | 713.48
332.94 K, 18021 kPa, x2 = 0.4536 | 736.57
332.94 K, 18026 kPa, x2 = 0.2369 | 724.66
332.94 K, 18031 kPa, x2 = 0.0551 | 717.29
332.94 K, 19002 kPa, x2 = 0.9663 | 728.62
332.94 K, 19004 kPa, x2 = 0.0551 | 718.07
332.94 K, 19012 kPa, x2 = 0.4536 | 737.79
332.94 K, 19022 kPa, x2 = 0.2369 | 725.6
332.94 K, 20002 kPa, x2 = 0.0551 | 718.88
332.94 K, 20002 kPa, x2 = 0.4536 | 738.93
332.94 K, 20012 kPa, x2 = 0.2369 | 726.51
332.94 K, 20033 kPa, x2 = 0.9663 | 742.59
332.94 K, 21014 kPa, x2 = 0.0551 | 719.68
332.94 K, 21022 kPa, x2 = 0.9663 | 754.63
332.94 K, 21024 kPa, x2 = 0.2369 | 727.44
332.94 K, 21028 kPa, x2 = 0.4536 | 740.14
332.94 K, 22021 kPa, x2 = 0.2369 | 728.35
332.94 K, 22021 kPa, x2 = 0.4536 | 741.29
332.94 K, 22027 kPa, x2 = 0.0551 | 720.5
332.94 K, 22029 kPa, x2 = 0.9663 | 765.58
332.94 K, 23009 kPa, x2 = 0.4536 | 742.44
332.94 K, 23010 kPa, x2 = 0.2369 | 729.26
